Reference: patent publication US20240384344A1, “METHOD FOR LABELING CELLS” (RIKEN, priority 2022, published 2024)

Columns and labels:
[1] = biological target: mouse E-cadherin (CDH1) (mouse) (UniProt P09803); assay: flow cytometry, undifferentiated mouse R1 ES cells, biotinylated anti-CDH1 antibody then PE-conjugated TotalSeq streptavidin
[2] = biological target: mouse E-cadherin (CDH1) (mouse) (UniProt P09803); assay: flow cytometry, differentiated R1 ES cells (only a part of them expresses CDH1), biotinylated anti-CDH1 antibody then PE-conjugated TotalSeq streptavidin
[3] = system: undifferentiated mouse ES cells (R1 line); assay: Flow cytometry of labeling efficiency (PE-positive cells), USB method vs Ab method; type: cell-based; conditions: TotalSeq PE streptavidin detection
Description: Single cells containing 0.5-2×10^6 […] CELLs prepared in “3. […] After incubation on ice, 3 mL ice-cold PBS containing 3% FBS was added to the reaction, and the cells were centrifuged at 4° C., 300 g for 5 minutes. The cells were further washed twice with Cell Staining Buffer (BioLegend, Inc., 420201), and then kept on ice until barcoded oligo DNA binding in the next step. Single cells containing 0.5-2×10^6 […] CELLs prepared in “3. […] An ice-cold primary antibody solution (0.05 μg/mL biotinylated CDC324 [E-cadherin] rat monoclonal antibody [Thermo Fisher ScientificTM, 13-3249-82]) was mixed with the cell suspension solution, and the cell was incubated on ice for 30 minutes. Next, the cells were washed three times with ice-cold Cell Staining Buffer, and then kept on ice until binding of barcoded DNA. […] The cell suspension solution was filtered through 40 μm cell strainer, the same number of cells from each sample was gathered in a single tube and used for cell trapping and cDNA synthesis using a BD RhapsodyTM apparatus. First, by the same method as in the above 1-3, SINGLE CELL suspension solutions of undifferentiated ES cells and differentiated ES cells were prepared. […] The stained cells were analyzed by flow cytometry using EC800 Cell Analyzer (Sony Corporation), Cyto FLEX flow cytometer (Beckman Coulter, Inc.), or […] flow cytometer (BD Biosciences). […]

[4] = system: differentiated ES cells (R1, embryoid body formation); assay: as above; type: cell-based, mouse; conditions: TotalSeq PE streptavidin detection
Description: After removing the feeder cells, 1×10^4 ES cells were seeded in 100 μL differentiation medium (GMEM supplemented with 15% FBS, 0.11 mg/mL sodium pyruvate, 0.1 mM 2-mercaptoethanol, 1×non-essential amino acid, and 1×GlutaMAX supplement) in a U-bottom 96-well low cell attachment plate (Nunclon Sphera 96-Well U-Shaped-Bottom Microplate; Thermo Fisher ScientificTM, 174925), and cultured for 24 hours. Spheroids made in the plate were transferred to a 90 mm, low cell attachment culture dish (Nunclon Sphera 90 mm dish, 174945), and cultured for further 4 days to form embryoid bodies (EBs). The EBs were washed three times with PBS, dissociated into […] CELLs (group of single cells) using 0.25% trypsin, the cells were seeded on a gelatin-treated culture dish, and cultured for 7 days to induce further differentiation. Single cells containing 0.5-2×10^6 […] CELLs prepared in “3. […] After incubation on ice, 3 mL ice-cold PBS containing 3% FBS was added to the reaction, and the cells were centrifuged at 4° C., 300 g for 5 minutes. The cells were further washed twice with Cell Staining Buffer (BioLegend, Inc., 420201), and then kept on ice until barcoded oligo DNA binding in the next step. […] The stained cells were analyzed by flow cytometry using EC800 Cell Analyzer (Sony Corporation), Cyto FLEX flow cytometer (Beckman Coulter, Inc.), or […] flow cytometer (BD Biosciences). […]

[5] = system: undifferentiated ES cells; assay: Cell viability test (colony formation); type: cell-based, mouse
Description: Undifferentiated ES cells were treated with 100 μg/mL S-NHS-biotin (10-fold the concentration used for multiplex scRNA-seq) and TotalSeq® PE streptavidin, and 3×10^3 cells were seeded on a 3.5 cm, gelatin-treated culture dish. Concurrently, the same number of untreated cells were seeded. After 5-day culture, the cells were stained with hematoxylin, and the colony formation ratios of untreated control and treated sample were examined.
A series of experimental operations by the USB method has a possibility to compromise cell states and growth. To examine this possibility, ES cells were treated by the USB method, and seeded on a culture dish to measure colony formation ability (FIG. 7). As a result, even though cells were treated with S-NHS-biotin at a concentration 10-fold the concentration used in the USB method (0.1 mg/mL), the difference of colony formation rates between the control group without labeling and the USB group were not observed. Consequently, the USB method was concluded to not change the cell viability.

[6] = Storage stability of S-NHS-biotin stock solution; type: physicochemical; conditions: stock solution at −80° C.
Description: A S-NHS-biotin stock solution was prepared by dissolving EZ-Link sulfo-NHS-biotin (Thermo Fisher Scientific™, 21217) in PBS at a concentration of 10 mg/mL, and dispensed and stored at […] until use.

[7] = system: mouse growth plate chondrocytes; assay: Flow cytometry of labeled growth plate chondrocytes; type: cell-based; conditions: mouse growth plate chondrocytes (FIG. 11)
Description: (§1) Specifically, healthy F344 rat lungs were cut into 0.5 mm^2 with razor blade, digested in a Liberase solution [RPMI-1640 (Natalai Tesque)] added with 10% FBS, 10 mM HEPES pH 7.2-7.4, 0.25 mg/ml Liberase™ (F. Hoffmann-La Roche Ltd.), and 2000 U/mL DNase I (Merck KGaA) for 60 minutes at 37° C. to prepare a SINGLE CELL suspension solution. Dead cells were removed by Percoll. Alternatively, growth plate cartilage from proximal tibia was collected from 3-week-old mice and cut finely into 1 to 2 mm pieces. Next, the cut pieces were dispersed into SINGLE CELLs (group of single cells) with Liberse™ (F. Hoffmann-La Roche Ltd.) solution for 120 to 210 minutes while continuously agitating.
(§2) Reagents for cell staining were biotinylated CDC324 (E-cadherin) rat monoclonal antibody (Thermo Fisher Scientific™, 13-3249-82), TotalSeq® PE streptavidin (BioLegend, Inc., 405251), PerCP-Cy5.5 anti-rat CD45 (Bio-Rad Laboratories, Inc., clone OX-1), PE anti-rat CD31 (Bio-Rad Laboratories, Inc., Clone TLD-3A12), streptavidin-APC (BioLegend, Inc., 405207), APC rat anti-mouse CD45 (BD Biosciences, 559864), and PE anti-mouse H-2 antibody (BioLegend, Inc., 125505).
(§3) The stained cells were analyzed by flow cytometry using EC800 Cell Analyzer (Sony Corporation), Cyto FLEX flow cytometer (Beckman Coulter, Inc.), or FACS Arria II flow cytometer (BD Biosciences).

[8] = system: rat lung cells (CD31 positive, CD45 positive, double negative); assay: Flow cytometry of USB labeling of fractionated lung cells (APC-labeled streptavidin); type: cell-based; conditions: CD45 positive and double negative fractions (FIG. 12)
Description: as §1, §2, §3

Sequence of UniProt P09803 (P09803 157-884): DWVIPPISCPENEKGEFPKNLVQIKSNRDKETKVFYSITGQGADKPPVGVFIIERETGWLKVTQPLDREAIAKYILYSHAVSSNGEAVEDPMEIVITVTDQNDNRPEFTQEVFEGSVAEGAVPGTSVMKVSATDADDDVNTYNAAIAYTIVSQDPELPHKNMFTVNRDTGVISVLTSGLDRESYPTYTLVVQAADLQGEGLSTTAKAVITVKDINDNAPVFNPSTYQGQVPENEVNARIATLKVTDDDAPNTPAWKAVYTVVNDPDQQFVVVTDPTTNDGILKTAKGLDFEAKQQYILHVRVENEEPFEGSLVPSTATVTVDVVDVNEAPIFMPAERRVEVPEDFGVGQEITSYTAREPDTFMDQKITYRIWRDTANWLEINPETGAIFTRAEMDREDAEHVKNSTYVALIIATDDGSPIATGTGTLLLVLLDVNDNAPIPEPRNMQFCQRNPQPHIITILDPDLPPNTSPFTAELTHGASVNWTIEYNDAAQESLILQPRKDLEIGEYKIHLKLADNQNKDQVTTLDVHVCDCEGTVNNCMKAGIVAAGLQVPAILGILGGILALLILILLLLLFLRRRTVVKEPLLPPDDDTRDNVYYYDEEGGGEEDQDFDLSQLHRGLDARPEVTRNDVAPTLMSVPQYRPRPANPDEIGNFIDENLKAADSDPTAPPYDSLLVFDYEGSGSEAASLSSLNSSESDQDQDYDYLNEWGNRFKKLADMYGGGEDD

percent PE-positive cells [1] | percent PE-positive cells [2] | Substance | percentage of PE-positive cells [3] | percentage of PE-positive cells [4] | difference of colony formation rates between the control group without labeling and the USB group ([5]; S-NHS-biotin 0.1 mg/mL (10-fold the concentration used in the USB method), 5-day culture) | effect on viability of undifferentiated ES cells ([5]; S-NHS-biotin treated vs control untreated cells (FIG. 7)) | time stock solution is stable [6] | labeling/staining of chondrocytes [7] | labeling of fractionated lung cells [8]
87.8% | 9.9% | biotinylated CDC324 [E-cadherin] rat monoclonal antibody [Thermo Fisher Scientific, 13-3249-82] | – | – | – | – | – | – | –
– | – | sulfo-N-hydroxysuccinimide-biotin [S-NHS-biotin] | 99.6% | 96.4% | not observed | does not affect the viability | more than 1 year | efficiently labeled | All fractionated cells were found to have been labeled
